Assay results taken from PMC9299836 (eLife, 2022).
“And” between values parts separate entries of the source, which are not always exact repeats. Equal values may be shown once.

Tests used:
mGluR2 [1] = biological target: mGluR2 (Mus musculus, UniProt Q14BI2, A548F); assay: Live-cell FRET, azi-CRD (cysteine-rich domain) sensor in HEK293T cells; details: for azi-CRD normalized FRET response, Mean / azi-CRD normalized FRET response, individual cell: Glutamate + 10μM modulator (NAM); for azi-CRD normalized FRET response, Mean: maximal response normalized to 1mM glutamate; for azi-CRD normalized FRET response, individual cell: single-cell replicate
Chain of mGluR2 (Mus musculus, UniProt Q14BI2, A548F) (Q14BI2 19-872 A548F): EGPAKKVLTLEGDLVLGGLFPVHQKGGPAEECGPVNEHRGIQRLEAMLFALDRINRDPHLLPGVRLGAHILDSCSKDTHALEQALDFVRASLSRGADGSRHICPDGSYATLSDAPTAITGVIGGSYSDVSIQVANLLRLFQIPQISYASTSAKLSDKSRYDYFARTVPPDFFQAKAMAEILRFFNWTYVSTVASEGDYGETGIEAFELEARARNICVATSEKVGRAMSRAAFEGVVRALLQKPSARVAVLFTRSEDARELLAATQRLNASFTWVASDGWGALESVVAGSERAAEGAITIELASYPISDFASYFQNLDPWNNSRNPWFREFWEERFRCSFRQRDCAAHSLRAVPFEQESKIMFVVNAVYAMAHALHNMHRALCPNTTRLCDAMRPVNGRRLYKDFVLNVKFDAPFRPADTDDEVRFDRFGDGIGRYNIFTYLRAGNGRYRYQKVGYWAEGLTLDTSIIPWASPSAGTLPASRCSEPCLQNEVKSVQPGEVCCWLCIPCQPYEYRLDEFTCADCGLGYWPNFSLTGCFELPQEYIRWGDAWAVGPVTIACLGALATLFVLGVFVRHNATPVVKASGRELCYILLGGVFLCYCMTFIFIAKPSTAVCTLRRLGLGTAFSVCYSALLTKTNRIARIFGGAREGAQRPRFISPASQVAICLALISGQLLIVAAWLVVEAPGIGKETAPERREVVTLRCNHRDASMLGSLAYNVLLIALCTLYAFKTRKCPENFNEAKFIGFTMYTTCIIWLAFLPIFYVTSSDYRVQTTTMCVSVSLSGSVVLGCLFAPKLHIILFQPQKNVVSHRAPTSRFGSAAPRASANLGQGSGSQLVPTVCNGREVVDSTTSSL

mGluR2 [2] = biological target: T1, mGluR2 (Mus musculus, UniProt Q14BI2); assay: Live-cell FRET, SNAP-m2 (VFT domain) inter-subunit sensor in HEK293T cells; details: for Mean normalized FRET response, SNAP-m2 NAM DRC: glutamate + 10μM modulator, maximal response normalized to 1mM glutamate;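 for all read-outs here: apparent FRET efficiency from whole-membrane ROIs of single cells, corrected for donor bleed-through and background, ΔFRET as treatment minus pretreatment signal, recorded at room temperature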
T1 sequence (Q14BI2 19-872): as the sequence (Q14BI2 19-872 A548F) above, with F530A counted along it

mGluR2 [3] = biological target: mGluR2 (Mus musculus, UniProt Q14BI2, INS715F); assay: Live-cell FRET, azi-ECL2 (7TM domain, extracellular loop 2) sensor in HEK293T cells; details: for Mean normalized azi-ECL2 FRET response: glutamate + 10μM modulator, maximal response normalized to 1mM glutamate;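 for all read-outs here: Cy3/Cy5 click-labeled sensor, whole-membrane ROIs per cell, apparent FRET after bleed-through correction, ΔFRET as treatment minus pre-treatment signal, at room temperature, at least three biological replicates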
Chain of mGluR2 (Mus musculus, UniProt Q14BI2, INS715F) (Q14BI2 with tags, fused parts or gaps INS715F): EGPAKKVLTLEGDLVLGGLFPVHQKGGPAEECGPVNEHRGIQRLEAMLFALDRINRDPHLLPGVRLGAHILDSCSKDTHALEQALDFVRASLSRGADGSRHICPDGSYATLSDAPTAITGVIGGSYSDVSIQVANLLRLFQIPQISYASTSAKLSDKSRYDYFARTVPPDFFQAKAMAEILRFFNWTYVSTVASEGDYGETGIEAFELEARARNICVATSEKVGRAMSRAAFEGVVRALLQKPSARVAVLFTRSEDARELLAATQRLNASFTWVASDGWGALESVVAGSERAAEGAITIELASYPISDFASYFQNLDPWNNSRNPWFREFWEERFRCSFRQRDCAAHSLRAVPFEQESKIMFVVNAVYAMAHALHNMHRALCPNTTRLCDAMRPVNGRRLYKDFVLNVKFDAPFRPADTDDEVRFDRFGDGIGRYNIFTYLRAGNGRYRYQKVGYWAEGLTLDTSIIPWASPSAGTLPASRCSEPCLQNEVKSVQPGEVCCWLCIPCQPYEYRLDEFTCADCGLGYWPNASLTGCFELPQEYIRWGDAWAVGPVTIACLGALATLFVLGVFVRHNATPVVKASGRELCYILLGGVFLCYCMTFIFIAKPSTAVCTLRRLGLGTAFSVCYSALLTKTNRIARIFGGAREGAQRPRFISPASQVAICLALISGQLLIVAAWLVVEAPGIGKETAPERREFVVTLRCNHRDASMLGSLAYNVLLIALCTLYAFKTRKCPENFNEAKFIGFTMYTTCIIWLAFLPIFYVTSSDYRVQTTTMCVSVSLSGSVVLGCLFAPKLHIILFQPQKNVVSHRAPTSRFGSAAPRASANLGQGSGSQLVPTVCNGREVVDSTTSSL

mGluR2 [4] = biological target: T1, mGluR2; assay: Functional calcium imaging, SNAP-mGluR2 (no FLAG-tag) with chimeric G protein Gqo5 in HEK293T cells; assay type: cell-based; design: Full length mGluR2 construct with an amber codon (TAG) mutation of amino acid A548 (azi-CRD) or N-terminal SNAP-tag (SNAP-mGluR2); host or cells: HEK293T; details: for Intracellular Ca2+ Response (normalized to 1mM glutamate), Mean: Glutamate + 15nM MNI-137
[5] = 10μM MNI-137, ([1 mM glutamate + modulator] - [1 mM glutamate]) × 100

azi-CRD - ΔEfficacy, Mean ΔEfficacy (mGluR2 [1]; [5]): -14.0141 | azi-CRD normalized FRET response, Mean (mGluR2 [1]; log[Glutamate] (M) -3): 0.8599 | azi-CRD normalized FRET response, Mean (mGluR2 [1]; log[Glutamate] (M) -4.52288): 0.6022 | azi-CRD normalized FRET response, Mean (mGluR2 [1]; log[Glutamate] (M) -5): 0.3809 | azi-CRD normalized FRET response, Mean (mGluR2 [1]; log[Glutamate] (M) -5.39794): 0.1786 | azi-CRD normalized FRET response, Mean (mGluR2 [1]; log[Glutamate] (M) -5.82391): 0.06813 | azi-CRD normalized FRET response, Mean (mGluR2 [1]; log[Glutamate] (M) -6.52288): 0.03124 | azi-CRD normalized FRET response, Mean (mGluR2 [1]; log[Glutamate] (M) -7): 0 | azi-CRD normalized FRET response, individual cell (mGluR2 [1]; log[Glutamate] (M) -7): 0 | Hill slope of glutamate titration (mGluR2 [1]; azi-CRD sensor, + 10 μM modulator): 1.10 | Mean max response (normalized max ΔFRET) (mGluR2 [1]; azi-CRD, 1 mM glutamate + 10 μM modulator, normalized to 1 mM glutamate): 0.86 | Mean ΔPotency (mGluR2 [1]; azi-CRD, 10μM modulator, (([modulator + glutamate]EC50 – [glutamate] EC50)/[glutamate] EC50) × 100): 19.3799 | SNAP-m2 - ΔEfficacy, Mean ΔEfficacy (mGluR2 [2]; [5]): -14.5253 | Mean max response (normalized max ΔFRET) (mGluR2 [2]; SNAP-m2, 1 mM glutamate + 10 μM modulator, normalized to 1 mM glutamate): 0.85 | Mean ΔPotency (mGluR2 [2]; SNAP-m2, 10μM modulator, (([modulator + glutamate]EC50 – [glutamate] EC50)/[glutamate] EC50) × 100): 44.8085 | Mean ΔEfficacy (mGluR2 [2]; SNAP-m2, 10μM modulator, ([1 mM glutamate + modulator] - [1 mM glutamate]) × 100): -14.5253 | Hill slope of glutamate titration (mGluR2 [2]; SNAP-m2 sensor, + 10 μM modulator): –1.61 | Mean normalized FRET response, SNAP-m2 NAM DRC (mGluR2 [2]; log[Glutamate] (M) -3): -0.8548 | Mean normalized FRET response, SNAP-m2 NAM DRC (mGluR2 [2]; log[Glutamate] (M) -4.1549): -0.777 | Mean normalized FRET response, SNAP-m2 NAM DRC (mGluR2 [2]; log[Glutamate] (M) -4.52288): -0.6231 | Mean normalized FRET response, SNAP-m2 NAM DRC (mGluR2 [2]; log[Glutamate] (M) -5): -0.2568 | Mean normalized FRET response, SNAP-m2 NAM DRC (mGluR2 [2]; log[Glutamate] (M) -5.82391): -0.04212 | Mean normalized FRET response, SNAP-m2 NAM DRC (mGluR2 [2]; log[Glutamate] (M) -6.52288): 0 | Mean normalized FRET response, SNAP-m2 NAM DRC (mGluR2 [2]; log[Glutamate] (M) -7): 0 | Mean normalized FRET response, SNAP-m2 NAM DRC (mGluR2 [2]; log[Glutamate] (M) -7.69897): 0 | Mean normalized FRET response, SNAP-m2 NAM DRC (mGluR2 [2]; log[Glutamate] (M) -4.69897): -0.4828 | azi-ECL2 - ΔEfficacy, Mean ΔEfficacy (mGluR2 [3]; [5]): -22.0861 | Mean ΔPotency (mGluR2 [3]; 10μM modulator, (([modulator + glutamate]EC50 – [glutamate] EC50)/[glutamate] EC50) × 100): 179.936 | Mean max response (normalized max ΔFRET) (mGluR2 [3]; azi-ECL2, 1 mM glutamate + 10 μM modulator, normalized to 1 mM glutamate): 0.78 | Hill slope of glutamate titration (mGluR2 [3]; azi-ECL2 sensor, + 10 μM modulator): 1.32 | Mean normalized azi-ECL2 FRET response (mGluR2 [3]; log[Glutamate] (M) -3): 0.7791 | Mean normalized azi-ECL2 FRET response (mGluR2 [3]; log[Glutamate] (M) -4.1549): 0.6793 | Mean normalized azi-ECL2 FRET response (mGluR2 [3]; log[Glutamate] (M) -4.52288): 0.5808 | Mean normalized azi-ECL2 FRET response (mGluR2 [3]; log[Glutamate] (M) -5): 0.314 | Mean normalized azi-ECL2 FRET response (mGluR2 [3]; log[Glutamate] (M) -5.82391): 0.01822 | Mean normalized azi-ECL2 FRET response (mGluR2 [3]; log[Glutamate] (M) -6.52288): 0 | Mean normalized azi-ECL2 FRET response (mGluR2 [3]; log[Glutamate] (M) -7): 0 | Mean normalized azi-ECL2 FRET response (mGluR2 [3]; log[Glutamate] (M) -7.69897): 0 | Mean normalized azi-ECL2 FRET response (mGluR2 [3]; log[Glutamate] (M) -4.69897): 0.4672 | Effect on receptor activation (calcium imaging) in the presence of glutamate (mGluR2 [4]; 10 μM NAM): block receptor activation | Intracellular Ca2+ Response, % 1mM Glutamate (mGluR2 [4]; 1mM Glutamate + 15nM MNI-137, individual experiments): 73.406% and 76.302% and 82.093% | Mean ΔEfficacy of glutamate (mGluR2 [4]; Ca2+ response, 1 mM glutamate + 15 nM modulator, ([1 mM glutamate + modulator] - [1 mM glutamate]) × 100): -22.7329 | ΔEfficacy of glutamate, individual experiments (mGluR2 [4]; Ca2+ response, 1 mM glutamate + 15 nM modulator, single replicate): -23.6976 and -17.9069 and -26.5942 | Mean ΔPotency of glutamate (mGluR2 [4]; Ca2+ response, glutamate + 15 nM modulator, (([modulator + glutamate]EC50 – [glutamate]EC50)/[glutamate]EC50) × 100): 30.7718 | ΔPotency of glutamate, individual experiments (mGluR2 [4]; Ca2+ response, glutamate + 15 nM modulator, single replicate): 55.4467 and 26.9701 and 9.898 | Intracellular Ca2+ Response (normalized to 1mM glutamate), Mean (mGluR2 [4]; log[Glutamate] (M) -3): 0.7727 | Intracellular Ca2+ Response (normalized to 1mM glutamate), Mean (mGluR2 [4]; log[Glutamate] (M) -3.60206): 0.7226 | Intracellular Ca2+ Response (normalized to 1mM glutamate), Mean (mGluR2 [4]; log[Glutamate] (M) -4.1549): 0.6149 | Intracellular Ca2+ Response (normalized to 1mM glutamate), Mean (mGluR2 [4]; log[Glutamate] (M) -4.52288): 0.4711 | Intracellular Ca2+ Response (normalized to 1mM glutamate), Mean (mGluR2 [4]; log[Glutamate] (M) -5): 0.2107 | Intracellular Ca2+ Response (normalized to 1mM glutamate), Mean (mGluR2 [4]; log[Glutamate] (M) -5.39794): 0.08277 | Intracellular Ca2+ Response (normalized to 1mM glutamate), Mean (mGluR2 [4]; log[Glutamate] (M) -5.82391): 0.01181 | Intracellular Ca2+ Response (normalized to 1mM glutamate), Mean (mGluR2 [4]; log[Glutamate] (M) -6.52288): 0 | Intracellular Ca2+ Response (normalized to 1mM glutamate), Mean (mGluR2 [4]; log[Glutamate] (M) -7): 0
Substance: MNI-137
azi-CRD - ΔEfficacy, individual cell responses (mGluR2 [1]; 10μM MNI-137, single cells): -19.4456 and -7.384 and -10.1516 and 1.621 and -9.317 and -10.1717 and -14.3919 and -15.5722 and -14.8125 and -10.0435 and -13.9489 and -17.5047 and -9.853 and -8.072 and -15.0625 and -34.4877 and -19.6812 and -23.9757 | azi-CRD normalized FRET response, individual cell (mGluR2 [1]; log[Glutamate] (M) -5.39794): 0.1624 and 0.1634 and 0.1646 and 0.1674 and 0.1243 and 0.1237 and 0.1526 and 0.2062 and 0.1399 and 0.1742 and 0.1692 and 0.2509 and 0.1433 and 0.1979 and 0.2166 and 0.2171 and 0.2594 and 0.1653 and 0.2159 and 0.1911 and 0.1708 and 0.1695 and 0.153 | azi-CRD normalized FRET response, individual cell (mGluR2 [1]; log[Glutamate] (M) -5.82391): 0.04445 and 0.05893 and 0.04553 and 0.06348 and 0.04636 and 0.04299 and 0.07924 and 0.06124 and 0.04784 and 0.04123 and 0.06211 and 0.06632 and 0.1186 and 0.05696 and 0.08797 and 0.1273 and 0.06713 and 0.0889 and 0.0871 and 0.09832 and 0.05971 and 0.05629 and 0.07113 and 0.07112 and 0.06208 and 0.06258 and 0.06477 | azi-CRD normalized FRET response, individual cell (mGluR2 [1]; log[Glutamate] (M) -6.52288): 0.0188 and 0.01987 and 0.01609 and 0.02693 and 0.05479 and 0.05033 and 0.00719 and 0.0225 and 0.06219 and 0.01914 and 0.02051 and 0.02647 and 0.05278 and 0.03127 (2×) and 0.02714 and 0.04081 and 0.0402 and 0.04434 and 0.02897 and 0.03138 and 0.03664 and 0.02295 | Live-cell FRET max response normalized to 1mM glutamate (mGluR2 [1]; azi-CRD sensor, Glutamate + 10μM MNI-137, individual values (N=18)): 0.9068 and 0.8983 and 0.8561 and 0.8443 and 0.8519 and 0.8996 and 0.8605 and 0.8249 and 0.9015 and 0.9193 and 0.8494 and 0.6551 and 0.8032 and 0.7602 and 0.8055 and 0.9262 and 0.8985 and 1.016 | ΔPotency, individual cell (mGluR2 [1]; azi-CRD, 10μM modulator, calculated from individual cell responses): 8.099 and 2.046 and -1.414 and 21.9358 and 9.829 and 20.2062 and 22.8006 and -4.008 and 2.91 and 8.964 and 24.5302 and 18.4766 and 6.37 and 10.6935 and 59.9867 and 17.6119 and -18.5365 and 122.252 and 0.316 and -3.143 and -10.9263 and 95.4432 and 15.0175 | SNAP-m2 - ΔEfficacy, individual cell responses (mGluR2 [2]; 10μM MNI-137, single cells): -10.7213 and -26.7573 and -13.8479 and -17.3754 and -14.1858 and -21.1325 and -12.0197 and -12.3419 and -6.834 and -6.212 and -2.3686 and -0.3026 and -3.79 and -23.2696 and -18.431 and -18.5097 and -23.731 and -16.2088 and -24.4772 and -17.7281 and -7.524 and -21.7885 | Live-cell FRET max response normalized to 1mM glutamate (mGluR2 [2]; SNAP-m2 sensor, Glutamate + 10μM MNI-137, individual values (N=22)): 0.8581 and 0.7887 and 0.8798 and 0.8766 and 0.9317 and 0.9379 and 0.9763 and 0.997 and 0.9621 and 0.7673 and 0.8157 and 0.8149 and 0.7627 and 0.8379 and 0.7552 and 0.8227 and 0.9248 and 0.7821 and 0.8928 and 0.7324 and 0.8615 and 0.8263 | ΔPotency, individual cell responses (mGluR2 [3]; 10μM modulator, single cells, (([modulator + glutamate]EC50 – [glutamate] EC50)/[glutamate] EC50) × 100): 208.526 and 269.842 and 265.754 and 289.307 and 19.9066 and 99.1307 and 118.401 and 168.622
